Patent US20090011052A1, “Anti-HIV medicinal herbs composition, preparation thereof and use of the same” (priority 2004, published 2009)

Columns and labels:
SIVmac251 [1] = assay: Plasma viral load in SIVmac251-infected Rhesus monkey; conditions: within the dosing range
From the text: Experiment animals: 5 females and 5 males Rhesus monkey as experimental animal with 4.5-5.5 Kg/each for a total of 10 were used, purchased from Primate Breeding Center, Research Institute of Experimental Animals, Chinese Academy of Medical Sciences. They were fed with commercial popped feeds. No abnormal physical examination was found before the experiment. Potential infections with SIV, SRV Type D and STLV-I were excluded by the serum IFA antibody test.
Each animal was intravenously infected with 1 ml virus solution equivalent to 3MID100 viral load.
Within each group, there were 3-4 animals with equal females and males. […] No drug treatment was offered for SIVmac251 infection control group.
Observation pre- and post-infection: Besides other pre-infection physical examinations, body weight and blood-drawing were made for each monkey (conducting all parameter tests). […] At the pre-determined timepoints, blood was drawn for the monkey to measure the plasma viral titer, blood CD4^+ count and antibody titre. […]
Plasma virus isolation: After the animals were infected with SIVmac251, to collect the blood samples were collected respectively at Days 7, 11, 14, 21, 28, 42, 60 and the plasma were separated by heparin anti-clotting. […] The viral titre was chosen for the sample with the lowest inoculation quantity but showing the typical patterns of cellular confluence. […]

SIVmac251 [2] = assay: Blood CD4+ lymphocyte count in SIVmac251-infected Rhesus monkey; format: in vivo
From the text: They were fed with commercial popped feeds.
Measurement of blood CD4^+ count: Blood samples were drawn from the animals before infection and 14, 28, 42 and 60 days after infection with SIVmac251 Ficoll lymphocyte separation fluid was adopted to isolate the peripheral lymphocytes. After tagging the anti-CD4 monoclonal antibody with direct fluorescence, the cells were counted on FACS machine to obtain the CD4^+ percentage. In combination with WBC count with DC of routine blood examination, the total count of blood CD4^+ lymphocytes was calculated. • 1.

## Cc1cn([C@H]2C[C@H](N=[N+]=[N-])[C@@H](CO)O2)c(=O)[nH]c1=O [AZT]
SIVmac251 [1]
  inhibition rate upon SIV: over 90%
SIVmac251 [2]; 2 and 4 weeks post-infection
  CD4 cells spared of the viral attacks (protected): 35%
SIVmac251 [2]; 2 week infection
  CD4+ lymphocytes: 714.51
  CD4+ lymphocytes, Difference with control: 187.21
  CD4+ lymphocytes, Difference with control (%): (35.5%)
SIVmac251 [2]; 4 week
  CD4+ lymphocytes: 540.57
  CD4+ lymphocytes, Difference with control: 137.96
  CD4+ lymphocytes, Difference with control (%): (34.27%)
SIVmac251 [2]; 6 week
  CD4+ lymphocytes: 543.31
  CD4+ lymphocytes, Difference with control: 83.24
  CD4+ lymphocytes, Difference with control (%): (18.09%)
SIVmac251 [2]; 8 w
  CD4+ lymphocytes: 530.95
  CD4+ lymphocytes, Difference with control (%): (43.0%)
SIVmac251 [2]; Pre-experiment
  CD4+ lymphocytes: 959.86
